These results are taken from patent US10035760B2, “Inhibitors of human immunodeficiency virus replication” (priority 2013, dated 2018).

The test system of this test is recombinant NL4-3 virus (Renilla luciferase) in MT-2 cells. The experiment in a line: HIV cell culture assay (antiviral activity, luciferase readout in infected MT-2 cells). It is filed as cell-based. The following applies: Renilla. As to the method:
HIV cell culture assay—MT-2 cells, 293T cells and the proviral DNA clone of NL4-3 virus were obtained from the NIH AIDS Research and Reference Reagent Program. MT-2 cells were propagated in RPMI 1640 media supplemented with 10% heat inactivated fetal bovine serum (FBS), 100 ug/ml penicillin G and up to 100 units/ml streptomycin. The 293T cells were propagated in DMEM media supplemented with 10% heat inactivated FBS, 100 ug/ml penicillin G and 100 ug/ml streptomycin. A recombinant NL4-3 proviral clone, in which a section of the nef gene was replaced with the Renilla luciferase gene, was used to make the reference virus used in these studies. The recombinant virus was prepared through transfection of the recombinant NL4-3 proviral clone into 293T cells using Transit-293 Transfection Reagent from Mirus Bio LLC (Madison, Wis.). Supernatent was harvested after 2-3 days after transfection, and the amount of virus present was titered in MT-2 cells using luciferase enzyme activity as a marker. Luciferase activity was quantitated using the EnduRen Live Cell Substrate from Promega (Madison, Wis.). Antiviral activities of compounds toward the recombinant virus were quantified by measuring luciferase activity in MT-2 cells infected for 4-5 days with the recombinant virus in the presence of serial dilutions of the compound.
The 50% effective concentration (EC50) was calculated by using the exponential form of the median effect equation where (Fa)=1/[1+(ED50/drug conc.)^m](Johnson V A, Byington R T. Infectivity Assay. In Techniques in HIV Research. ed. Aldovini A, Walker B D. 71-76. New York: Stockton Press. 1990).

Where [1] appears, read: NL43, read-out: Activity, antiviral activity class, recombinant NL4-3 Renilla luciferase virus in MT-2 cells.
Where [2] appears, read: NL43, recombinant NL4-3 Renilla luciferase virus in MT-2 cells.

Where two headings read alike, the source gives them in different places. A value given as a limit tells only on which side of the number the result lay.

Turning to `CN(C(=O)[C@H](Cc1ccccc1)NC(=O)NS(=O)(=O)c1ccccc1)c1ccc2c(c1)OCO2` [Example 1, (S)—N-(benzo[d][1,3]dioxol-5-yl)-N-methyl-3-phenyl-2-(3-(phenylsulfonyl)ureido)propanamide], the EC50 is 100 to 1000 nM under setting [1] and 260 nM under setting [2]. As for `Cc1ccccc1S(=O)(=O)NC(=O)N[C@@H](Cc1ccccc1)C(=O)N(C)c1ccc2c(c1)OCO2` [Example 2, (S)—N-(benzo[d][1,3]dioxol-5-yl)-N-methyl-3-phenyl-2-(3-(o-tolylsulfonyl)ureido)propanamide], the EC50 is, setting by setting: under setting [1], less than 100 nM; under setting [2], 70 nM. Regarding `CN(C(=O)[C@H](Cc1ccccc1)NC(=O)NS(=O)(=O)c1cccc(Cl)c1)c1ccc2c(c1)OCO2` [Example 3, (S)—N-(benzo[d][1,3]dioxol-5-yl)-2-(3-((3-chlorophenyl)sulfonyl)ureido)-N-methyl-3-phenylpropanamide], under setting [1], the EC50 was 100 to 1000 nM. As to `CN(C(=O)[C@H](Cc1ccccc1)NC(=O)NS(=O)(=O)C1(C)CC1)c1ccc2c(c1)OCO2` [Example 4, (S)—N-(benzo[d][1,3]dioxol-5-yl)-N-methyl-2-(3-((1-methylcyclopropyl)sulfonyl)ureido)-3-phenylpropanamide], the EC50 is 1000 to 10000 nM under setting [1] and 1110 nM under setting [2].

Consider `Cc1ccc(S(=O)(=O)NC(=O)N[C@@H](Cc2ccccc2)C(=O)N(C)c2ccc3c(c2)OCO3)cc1` [Example 5, (S)—N-(benzo[d][1,3]dioxol-5-yl)-N-methyl-3-phenyl-2-(3-tosylureido)propanamide], for which the EC50 under setting [1] was 100 to 1000 nM. Still for that read-out and setting: under `CN(C(=O)[C@H](Cc1ccccc1)NC(=O)NS(=O)(=O)c1ccc(Cl)cc1)c1ccc2c(c1)OCO2` [Example 6, (S)—N-(benzo[d][1,3]dioxol-5-yl)-2-(3-((4-chlorophenyl)sulfonyl)ureido)-N-methyl-3-phenylpropanamide] stands 100 to 1000 nM; under `CN(C(=O)[C@H](Cc1ccccc1)NC(=O)NS(=O)(=O)c1ccccc1Cl)c1ccc2c(c1)OCO2` [Example 7, (S)—N-(benzo[d][1,3]dioxol-5-yl)-2-(3-((2-chlorophenyl)sulfonyl)ureido)-N-methyl-3-phenylpropanamide], less than 100 nM.

For the molecule `COc1ccc(S(=O)(=O)NC(=O)N[C@@H](Cc2ccccc2)C(=O)N(C)c2ccc3c(c2)OCO3)cc1` [Example 8, (S)—N-(benzo[d][1,3]dioxol-5-yl)-2-(3-((4-methoxyphenyl)sulfonyl)ureido)-N-methyl-3-phenylpropanamide], the EC50 under setting [1] is 100 to 1000 nM and the EC50 under setting [2] came out at 180 nM. As for `CN(C(=O)[C@H](Cc1ccccc1)NC(=O)NS(=O)(=O)c1ccccc1F)c1ccc2c(c1)OCO2` [Example 9, (S)—N-(benzo[d][1,3]dioxol-5-yl)-2-(3-((2-fluorophenyl)sulfonyl)ureido)-N-methyl-3-phenylpropanamide], the EC50 under setting [1] is less than 100 nM. Consider `CN(C(=O)[C@H](Cc1ccccc1)NC(=O)NS(=O)(=O)Cc1ccccc1)c1ccc2c(c1)OCO2` [Example 10, (S)—N-(benzo[d][1,3]dioxol-5-yl)-2-(3-(benzylsulfonyl)ureido)-N-methyl-3-phenylpropanamide], for which the EC50 under setting [1] was 100 to 1000 nM. For `CN(C(=O)[C@H](Cc1ccccc1)NC(=O)NS(=O)(=O)c1cc(Cl)cc(Cl)c1)c1ccc2c(c1)OCO2` [Example 11, (S)—N-(benzo[d][1,3]dioxol-5-yl)-2-(3-((3,5-dichlorophenyl)sulfonyl)ureido)-N-methyl-3-phenylpropanamide], the EC50 under setting [1] lay in the range of 100 to 1000 nM. Same read-out and setting: under `CN(C(=O)[C@H](Cc1ccccc1)NC(=O)NS(=O)(=O)c1cc(Br)ccc1Br)c1ccc2c(c1)OCO2` [Example 12, (S)—N-(benzo[d][1,3]dioxol-5-yl)-2-(3-((2,5-dibromophenyl)sulfonyl)ureido)-N-methyl-3-phenylpropanamide] stands less than 100 nM. Turning to `Cc1ccc(C)c(S(=O)(=O)NC(=O)N[C@@H](Cc2ccccc2)C(=O)N(C)c2ccc3c(c2)OCO3)c1` [Example 13, (S)—N-(benzo[d][1,3]dioxol-5-yl)-2-(3-((2,5-dimethylphenyl)sulfonyl)ureido)-N-methyl-3-phenylpropanamide], the EC50 was less than 100 nM under setting [1] and 50 nM under setting [2].

Take `CN(C(=O)[C@H](Cc1ccccc1)NC(=O)NS(=O)(=O)c1ccccc1OC(F)(F)F)c1ccc2c(c1)OCO2` [Example 14, (S)—N-(benzo[d][1,3]dioxol-5-yl)-N-methyl-3-phenyl-2-(3-((2-(trifluoromethoxy)phenyl)sulfonyl)ureido)propanamide]: the EC50 under setting [1] was less than 100 nM. On to `CN(C(=O)[C@H](Cc1ccccc1)NC(=O)NS(=O)(=O)c1cccc(Cl)c1Cl)c1ccc2c(c1)OCO2` [Example 15, (S)—N-(benzo[d][1,3]dioxol-5-yl)-2-(3-((2,3-dichlorophenyl)sulfonyl)ureido)-N-methyl-3-phenylpropanamide], for which the EC50 under setting [1] is less than 100 nM. `Cc1ccc(F)cc1S(=O)(=O)NC(=O)N[C@@H](Cc1ccccc1)C(=O)N(C)c1ccc2c(c1)OCO2` [Example 16, (S)—N-(benzo[d][1,3]dioxol-5-yl)-2-(3-((5-fluoro-2-methylphenyl)sulfonyl)ureido)-N-methyl-3-phenylpropanamide]: the EC50 under setting [1] was less than 100 nM. Regarding `CN(C(=O)[C@H](Cc1ccccc1)NC(=O)NS(=O)(=O)c1ccccc1C(F)(F)F)c1ccc2c(c1)OCO2` [Example 17, (S)—N-(benzo[d][1,3]dioxol-5-yl)-N-methyl-3-phenyl-2-(3-((2-(trifluoromethyl)phenyl)sulfonyl)ureido)propanamide], under setting [1], the EC50 is 100 to 1000 nM. On to `CN(C(=O)[C@H](Cc1ccccc1)NC(=O)NS(=O)(=O)c1ccc(F)cc1F)c1ccc2c(c1)OCO2` [Example 18, (S)—N-(benzo[d][1,3]dioxol-5-yl)-2-(3-((2,4-difluorophenyl)sulfonyl)ureido)-N-methyl-3-phenylpropanamide], for which the EC50 by setting is: under setting [1], 100 to 1000 nM; under setting [2], 200 nM. Regarding `CN(C(=O)[C@H](Cc1ccccc1)NC(=O)NS(=O)(=O)c1cccc(Br)c1)c1ccc2c(c1)OCO2` [Example 19, (S)—N-(benzo[d][1,3]dioxol-5-yl)-2-(3-((3-bromophenyl)sulfonyl)ureido)-N-methyl-3-phenylpropanamide], under setting [1], the EC50 lay within 100 to 1000 nM.

Regarding `COc1cccc(S(=O)(=O)NC(=O)N[C@@H](Cc2ccccc2)C(=O)N(C)c2ccc3c(c2)OCO3)c1` [Example 20, (S)—N-(benzo[d][1,3]dioxol-5-yl)-2-(3-((3-methoxyphenyl)sulfonyl)ureido)-N-methyl-3-phenylpropanamide], the EC50 was less than 100 nM under setting [1] and 90 nM under setting [2]. Regarding `CN(C(=O)[C@H](Cc1ccccc1)NC(=O)NS(=O)(=O)c1ccc([N+](=O)[O-])cc1)c1ccc2c(c1)OCO2` [Example 21, (S)—N-(benzo[d][1,3]dioxol-5-yl)-N-methyl-2-(3-((4-nitrophenyl)sulfonyl)ureido)-3-phenylpropanamide], the EC50 under setting [1] lay in the range of 1000 to 10000 nM. For the molecule `CN(C(=O)[C@H](Cc1ccccc1)NC(=O)NS(=O)(=O)c1ccc(F)cc1)c1ccc2c(c1)OCO2` [Example 22, (S)—N-(benzo[d][1,3]dioxol-5-yl)-2-(3-((4-fluorophenyl)sulfonyl)ureido)-N-methyl-3-phenylpropanamide], the EC50 under setting [1] fell in the range of 100 to 1000 nM. Still for that read-out and setting: under `COC(=O)c1ccccc1S(=O)(=O)NC(=O)N[C@@H](Cc1ccccc1)C(=O)N(C)c1ccc2c(c1)OCO2` [Example 23, (S)-methyl 2-(N-((1-(benzo[d][1,3]dioxol-5-yl(methyl)amino)-1-oxo-3-phenylpropan-2-yl)carbamoyl)sulfamoyl)benzoate] stands 1000 to 10000 nM; under `CN(C(=O)[C@H](Cc1ccccc1)NC(=O)NS(=O)(=O)CCc1ccccc1)c1ccc2c(c1)OCO2` [Example 24, (S)—N-(benzo[d][1,3]dioxol-5-yl)-N-methyl-2-(3-(phenethylsulfonyl)ureido)-3-phenylpropanamide], 100 to 1000 nM. For `CN(C(=O)[C@H](Cc1ccccc1)NC(=O)NS(=O)(=O)CCCc1ccccc1)c1ccc2c(c1)OCO2` [Example 25, (S)—N-(benzo[d][1,3]dioxol-5-yl)-N-methyl-3-phenyl-2-(3-((3-phenylpropyl)sulfonyl)ureido)propanamide], the EC50 by setting is: under setting [1], 100 to 1000 nM; under setting [2], 930 nM. Consider `CN(C(=O)[C@H](Cc1ccccc1)NC(=O)NS(=O)(=O)c1ccc(F)c(F)c1)c1ccc2c(c1)OCO2` [Example 26, (S)—N-(benzo[d][1,3]dioxol-5-yl)-2-(3-((3,4-difluorophenyl)sulfonyl)ureido)-N-methyl-3-phenylpropanamide], for which the EC50 under setting [1] lay in the range of 100 to 1000 nM.

On to `Cc1ccc(S(=O)(=O)NC(=O)N[C@@H](Cc2ccccc2)C(=O)N(C)c2ccc3c(c2)OCO3)s1` [Example 27, (S)—N-(benzo[d][1,3]dioxol-5-yl)-N-methyl-2-(3-((5-methylthiophen-2-yl)sulfonyl)ureido)-3-phenylpropanamide], for which the EC50 under setting [1] fell in the range of 100 to 1000 nM. `Cc1c(Cl)cccc1S(=O)(=O)NC(=O)N[C@@H](Cc1ccccc1)C(=O)N(C)c1ccc2c(c1)OCO2` [Example 28, (S)—N-(benzo[d][1,3]dioxol-5-yl)-2-(3-((3-chloro-2-methylphenyl)sulfonyl)ureido)-N-methyl-3-phenylpropanamide]: the EC50 under setting [1] was less than 100 nM.
